Data taken from the Kinase Knowledgebase extract (Sharma et al. 2016).

Assays:
PIK3CB (Human) = PIK3CB (Human) (UniProt P42338); test: Enzyme Assay
PIK3CG (human) = PIK3CG (human) (UniProt P48736); test: Enzyme Assay
PIK3CD (Human) [1] = target: PIK3CD (Human) (UniProt O00329); test: Enzyme Assay
PIK3CD (Human) [2] = target: PIK3CD (Human) (UniProt O00329); test: Cell-Based Assay; conditions: raji

Chain of PIK3CB (Human) (P42338 whole entry, looked up): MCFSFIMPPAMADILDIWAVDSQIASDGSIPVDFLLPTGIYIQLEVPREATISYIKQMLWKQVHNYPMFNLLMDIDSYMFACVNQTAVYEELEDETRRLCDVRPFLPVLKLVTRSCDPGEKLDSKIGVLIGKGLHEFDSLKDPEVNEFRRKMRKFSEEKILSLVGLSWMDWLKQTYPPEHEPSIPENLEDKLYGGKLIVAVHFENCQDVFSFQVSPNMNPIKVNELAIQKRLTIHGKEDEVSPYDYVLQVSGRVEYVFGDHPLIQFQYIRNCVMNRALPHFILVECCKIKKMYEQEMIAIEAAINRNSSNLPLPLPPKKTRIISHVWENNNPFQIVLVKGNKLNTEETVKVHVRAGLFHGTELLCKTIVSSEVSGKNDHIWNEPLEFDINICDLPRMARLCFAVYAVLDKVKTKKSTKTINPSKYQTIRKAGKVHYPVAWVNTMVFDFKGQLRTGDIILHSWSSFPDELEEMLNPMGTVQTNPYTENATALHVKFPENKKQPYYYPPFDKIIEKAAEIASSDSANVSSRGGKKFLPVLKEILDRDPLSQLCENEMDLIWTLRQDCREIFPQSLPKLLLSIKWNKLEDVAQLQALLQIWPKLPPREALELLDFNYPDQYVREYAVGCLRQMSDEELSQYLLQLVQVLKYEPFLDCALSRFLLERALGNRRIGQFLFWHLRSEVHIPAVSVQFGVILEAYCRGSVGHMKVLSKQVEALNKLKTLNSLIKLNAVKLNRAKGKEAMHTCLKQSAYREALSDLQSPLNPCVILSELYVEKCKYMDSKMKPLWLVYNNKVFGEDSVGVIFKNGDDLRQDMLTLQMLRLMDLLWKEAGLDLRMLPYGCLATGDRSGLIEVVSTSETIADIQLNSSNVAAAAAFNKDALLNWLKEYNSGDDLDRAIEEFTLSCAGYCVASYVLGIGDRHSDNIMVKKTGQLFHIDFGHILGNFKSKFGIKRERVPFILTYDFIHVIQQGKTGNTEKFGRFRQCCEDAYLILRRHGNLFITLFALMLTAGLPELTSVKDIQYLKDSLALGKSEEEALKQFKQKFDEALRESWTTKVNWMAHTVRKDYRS
Chain of PIK3CD (Human) (O00329 whole entry, looked up): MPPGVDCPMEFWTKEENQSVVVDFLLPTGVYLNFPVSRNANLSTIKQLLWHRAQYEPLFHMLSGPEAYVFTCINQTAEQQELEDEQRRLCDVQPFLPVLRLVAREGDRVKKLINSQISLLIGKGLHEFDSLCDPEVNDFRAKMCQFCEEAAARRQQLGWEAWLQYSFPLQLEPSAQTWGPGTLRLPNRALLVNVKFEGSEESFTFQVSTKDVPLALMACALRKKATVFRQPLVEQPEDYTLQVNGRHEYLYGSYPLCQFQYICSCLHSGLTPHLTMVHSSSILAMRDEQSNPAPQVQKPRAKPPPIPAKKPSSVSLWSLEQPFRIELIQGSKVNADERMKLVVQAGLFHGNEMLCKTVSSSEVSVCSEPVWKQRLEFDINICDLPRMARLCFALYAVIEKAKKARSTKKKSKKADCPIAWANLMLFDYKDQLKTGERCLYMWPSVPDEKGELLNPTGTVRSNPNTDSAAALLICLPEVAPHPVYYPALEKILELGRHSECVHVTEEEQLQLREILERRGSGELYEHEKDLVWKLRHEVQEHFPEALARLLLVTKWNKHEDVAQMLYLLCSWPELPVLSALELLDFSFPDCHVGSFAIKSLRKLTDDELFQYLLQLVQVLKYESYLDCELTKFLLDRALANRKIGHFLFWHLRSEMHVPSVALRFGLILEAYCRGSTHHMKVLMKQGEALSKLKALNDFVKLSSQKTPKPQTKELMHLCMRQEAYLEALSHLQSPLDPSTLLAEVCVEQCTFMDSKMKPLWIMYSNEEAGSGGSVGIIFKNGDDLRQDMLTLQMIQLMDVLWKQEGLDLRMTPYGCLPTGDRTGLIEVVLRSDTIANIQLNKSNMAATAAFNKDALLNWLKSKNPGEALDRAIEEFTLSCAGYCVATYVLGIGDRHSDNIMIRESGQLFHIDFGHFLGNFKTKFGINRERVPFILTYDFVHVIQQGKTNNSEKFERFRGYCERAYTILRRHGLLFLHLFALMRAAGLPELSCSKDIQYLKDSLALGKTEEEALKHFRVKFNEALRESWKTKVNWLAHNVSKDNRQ
Chain of PIK3CG (human) (P48736 whole entry, looked up): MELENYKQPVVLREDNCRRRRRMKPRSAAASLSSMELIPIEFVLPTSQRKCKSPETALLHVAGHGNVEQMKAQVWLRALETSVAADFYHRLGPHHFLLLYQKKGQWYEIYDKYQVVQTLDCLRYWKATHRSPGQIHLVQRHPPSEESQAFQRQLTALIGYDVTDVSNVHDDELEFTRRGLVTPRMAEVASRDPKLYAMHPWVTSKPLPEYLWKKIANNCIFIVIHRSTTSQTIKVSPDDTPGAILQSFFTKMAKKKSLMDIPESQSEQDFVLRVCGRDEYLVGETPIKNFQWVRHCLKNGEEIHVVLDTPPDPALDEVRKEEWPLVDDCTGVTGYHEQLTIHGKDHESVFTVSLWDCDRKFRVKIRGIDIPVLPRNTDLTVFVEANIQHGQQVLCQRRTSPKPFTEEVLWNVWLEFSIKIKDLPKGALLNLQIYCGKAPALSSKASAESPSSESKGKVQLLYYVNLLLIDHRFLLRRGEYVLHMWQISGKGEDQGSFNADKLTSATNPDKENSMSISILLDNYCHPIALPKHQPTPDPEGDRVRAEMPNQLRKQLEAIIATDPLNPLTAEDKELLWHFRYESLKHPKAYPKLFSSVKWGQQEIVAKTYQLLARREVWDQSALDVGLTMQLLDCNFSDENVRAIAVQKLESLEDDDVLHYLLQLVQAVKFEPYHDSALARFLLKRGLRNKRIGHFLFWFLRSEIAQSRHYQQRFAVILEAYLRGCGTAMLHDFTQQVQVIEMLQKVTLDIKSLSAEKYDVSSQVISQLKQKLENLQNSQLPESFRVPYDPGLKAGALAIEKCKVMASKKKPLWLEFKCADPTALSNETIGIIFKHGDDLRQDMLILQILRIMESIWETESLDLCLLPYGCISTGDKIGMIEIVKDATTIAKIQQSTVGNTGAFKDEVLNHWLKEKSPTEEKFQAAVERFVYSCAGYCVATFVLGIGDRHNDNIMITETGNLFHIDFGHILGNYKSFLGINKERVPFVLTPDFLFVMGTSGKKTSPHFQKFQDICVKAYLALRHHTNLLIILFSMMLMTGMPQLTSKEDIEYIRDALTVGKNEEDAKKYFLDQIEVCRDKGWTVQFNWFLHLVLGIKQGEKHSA

IC50 (PIK3CB (Human)) | IC50 (PIK3CG (human)) | IC50 (PIK3CD (Human) [1]) | IC50 (PIK3CD (Human) [2]) | Compound
5 to 10 µM | 0.1 to 0.5 µM | 5 to 10 µM | 1 to 10 µM | C[C@H](NC(=O)c1cnn2cccnc12)c1cc2cccc(C#Cc3cnn(C)c3)c2c(=O)n1-c1ccccc1
0.001 to 0.5 µM | 0.001 to 0.1 µM | 1 to 5 µM | 0.1 to 0.5 µM | C[C@H](NC(=O)c1c(N)nn2cccnc12)c1cc2cccc(C#CC=O)c2c(=O)n1-c1ccccc1
5 to 10 µM | 1 to 5 µM | 5 to 10 µM | 1 to 10 µM | Cc1ncccc1C#Cc1cccc2cc([C@H](C)NC(=O)c3c(N)nn4cccnc34)n(-c3ccccc3)c(=O)c12
5 to 10 µM | 0.1 to 0.5 µM | 5 to 10 µM | – | Cc1cccc(-n2c([C@H](C)NC(=O)c3c(N)nn4cccnc34)cc3cccc(C#Cc4cnn(C)c4)c3c2=O)c1
5 to 10 µM | 0.1 to 0.5 µM | 5 to 10 µM | 0.1 to 0.5 µM | C[C@H](NC(=O)c1c(N)nn2cccnc12)c1cc2cccc(C#Cc3ccn[nH]3)c2c(=O)n1-c1ccccc1
5 to 10 µM | 0.1 to 0.5 µM | 5 to 10 µM | 1 to 10 µM | C[C@H](NC(=O)c1c(N)nn2cccnc12)c1cc2cccc(C#CC(C)(C)O)c2c(=O)n1-c1ccccc1
1 to 5 µM | 0.1 to 0.5 µM | 1 to 5 µM | 0.001 to 0.1 µM | C[C@H](NC(=O)c1nccnc1N)c1cc2cccc(C#Cc3cnn(C)c3)c2c(=O)n1-c1ccccc1
5 to 10 µM | – | 5 to 10 µM | 0.1 to 0.5 µM | C[C@H](NC(=O)c1c(N)nn2cccnc12)c1nc2cccc(C#Cc3cnn(C)c3)c2c(=O)n1-c1ccccc1
5 to 10 µM | 0.1 to 0.5 µM | 5 to 10 µM | 0.1 to 0.5 µM | Cc1ncc(C#Cc2cccc3cc([C@H](C)NC(=O)c4c(N)nn5cccnc45)n(-c4ccccc4)c(=O)c23)s1
5 to 10 µM | > 5 µM | 5 to 10 µM | – | C[C@H](NC(=O)c1c(N)nn2cccnc12)c1cc2cccc(C=Cc3ccccc3)c2c(=O)n1-c1ccccc1
5 to 10 µM | 0.1 to 0.5 µM | 5 to 10 µM | – | C[C@H](NC(=O)c1c(N)nn2cccnc12)c1cc2cccc(C#Cc3cnn(C)c3)c2c(=O)n1-c1ccc(F)c(F)c1
1 to 5 µM | 0.001 to 0.1 µM | 0.5 to 1 µM | 0.001 to 0.1 µM | C[C@H](NC(=O)c1c(N)nn2cccnc12)c1cc2cccc(C#CCO)c2c(=O)n1-c1ccccc1
5 to 10 µM | 0.1 to 0.5 µM | 5 to 10 µM | – | Cc1ccnc2c(C(=O)N[C@@H](C)c3cc4cccc(C#Cc5cnn(C)c5)c4c(=O)n3-c3ccccc3)cnn12
5 to 10 µM | 0.5 to 1 µM | 5 to 10 µM | 0.5 to 1 µM | C[C@H](NC(=O)c1c(N)nn2cccnc12)c1cc2cccc(C#CC3CCN(S(C)(=O)=O)CC3)c2c(=O)n1-c1ccccc1
5 to 10 µM | 0.5 to 1 µM | 5 to 10 µM | 1 to 10 µM | Cc1nc(C)c(C#Cc2cccc3cc([C@H](C)NC(=O)c4c(N)nn5cccnc45)n(-c4ccccc4)c(=O)c23)s1
1 to 5 µM | 0.1 to 0.5 µM | 1 to 5 µM | 0.1 to 0.5 µM | C[C@H](NC(=O)c1c(N)nn2cccnc12)c1cc2cccc(C#CC3CC3)c2c(=O)n1-c1ccccc1
5 to 10 µM | 0.5 to 1 µM | 5 to 10 µM | 1 to 10 µM | C[C@H](NC(=O)c1c(N)nn2cccnc12)c1cc2cccc(C#CC3CCNCC3)c2c(=O)n1-c1ccccc1
5 to 10 µM | 0.001 to 0.1 µM | 5 to 10 µM | 0.5 to 1 µM | Cc1nc(C#Cc2cccc3nc([C@H](C)NC(=O)c4c(N)nn5cccnc45)n(-c4ccccc4)c(=O)c23)cs1
5 to 10 µM | 1 to 5 µM | 0.001 to 0.5 µM | 0.001 to 0.1 µM | C[C@H](NC(=O)c1c(N)nn2cccnc12)c1cc2cccc(C#Cc3ccccc3)c2c(=O)n1-c1ccccc1
5 to 10 µM | 0.1 to 0.5 µM | 5 to 10 µM | 0.1 to 0.5 µM | Cc1csc(C#Cc2cccc3cc([C@H](C)NC(=O)c4c(N)nn5cccnc45)n(-c4ccccc4)c(=O)c23)n1
1 to 5 µM | 0.001 to 0.1 µM | 5 to 10 µM | – | Cc1ccn2nc(N)c(C(=O)N[C@@H](C)c3cc4cccc(C#Cc5cnn(C)c5)c4c(=O)n3-c3ccccc3)c2n1
5 to 10 µM | 0.001 to 0.1 µM | 0.5 to 1 µM | 0.1 to 0.5 µM | C[C@H](NC(=O)c1c(N)nn2cccnc12)c1cc2cccc(C#C[C@@H](C)O)c2c(=O)n1-c1ccccc1
5 to 10 µM | 1 to 5 µM | 5 to 10 µM | 0.5 to 1 µM | C[C@H](NC(=O)c1c(N)nn2cccnc12)c1cc2cccc(C#CC(F)(F)F)c2c(=O)n1-c1ccccc1
5 to 10 µM | 0.5 to 1 µM | 5 to 10 µM | 1 to 10 µM | C[C@H](NC(=O)c1c(N)nn2cccnc12)c1cc2ccc3ccccc3c2c(=O)n1-c1ccccc1
5 to 10 µM | 0.1 to 0.5 µM | 5 to 10 µM | 0.1 to 0.5 µM | Cc1scnc1C#Cc1cccc2cc([C@H](C)NC(=O)c3c(N)nn4cccnc34)n(-c3ccccc3)c(=O)c12
5 to 10 µM | 0.1 to 0.5 µM | 5 to 10 µM | 1 to 10 µM | C[C@H](NC(=O)c1c(N)nn2cccnc12)c1cc2cccc(C#CCN3CCOCC3)c2c(=O)n1-c1ccccc1

IC50 (PIK3CB (Human)) | IC50 (PIK3CG (human)) | IC50 (PIK3CD (Human) [1]) | IC50 (PIK3CD (Human) [2]) | Compound
5 to 10 µM | 0.1 to 0.5 µM | 5 to 10 µM | 0.001 to 0.1 µM | C/C=C/c1cccc2cc([C@H](C)NC(=O)c3c(N)nn4cccnc34)n(-c3ccccc3)c(=O)c12
5 to 10 µM | 0.1 to 0.5 µM | 5 to 10 µM | 0.1 to 0.5 µM | C[C@H](NC(=O)c1c(N)nn2cccnc12)c1cc2cccc(C#Cc3ccn(C)n3)c2c(=O)n1-c1ccccc1
5 to 10 µM | 0.1 to 0.5 µM | 5 to 10 µM | 0.1 to 0.5 µM | C[C@H](NC(=O)c1c(N)nn2cccnc12)c1cc2cccc(C#Cc3nccs3)c2c(=O)n1-c1ccccc1
5 to 10 µM | 1 to 5 µM | 5 to 10 µM | 1 to 10 µM | C[C@H](NC(=O)c1c(N)nn2cccnc12)c1cc2cccc(C#CC3CCCCC3)c2c(=O)n1-c1ccccc1
5 to 10 µM | 1 to 5 µM | 5 to 10 µM | 0.1 to 0.5 µM | COc1cc(C#Cc2cccc3cc([C@H](C)NC(=O)c4c(N)nn5cccnc45)n(-c4ccccc4)c(=O)c23)ccn1
1 to 5 µM | 0.001 to 0.1 µM | 0.001 to 0.5 µM | 0.001 to 0.1 µM | C[C@H](NC(=O)c1c(N)nn2cccnc12)c1cc2cccc(C#CCN3CCCC3=O)c2c(=O)n1-c1ccccc1
5 to 10 µM | 0.1 to 0.5 µM | 5 to 10 µM | 0.5 to 1 µM | Cc1nn(C)cc1C#Cc1cccc2cc([C@H](C)NC(=O)c3c(N)nn4cccnc34)n(-c3ccccc3)c(=O)c12
5 to 10 µM | 0.5 to 1 µM | 5 to 10 µM | 0.1 to 0.5 µM | C[C@H](NC(=O)c1c(N)nn2cccnc12)c1cc2cccc(C#CCN(C)C)c2c(=O)n1-c1ccccc1
5 to 10 µM | 0.5 to 1 µM | 5 to 10 µM | – | CC(C)n1c([C@H](C)NC(=O)c2c(N)nn3cccnc23)cc2cccc(C#Cc3cnn(C)c3)c2c1=O
1 to 5 µM | 0.1 to 0.5 µM | 1 to 5 µM | – | Cc1nnc(C#Cc2cccc3cc([C@H](C)NC(=O)c4c(N)nn5cccnc45)n(-c4ccccc4)c(=O)c23)s1
5 to 10 µM | 0.001 to 0.1 µM | 5 to 10 µM | – | Cc1ccccc1-n1c([C@H](C)NC(=O)c2c(N)nn3cccnc23)cc2cccc(C#Cc3cnn(C)c3)c2c1=O
5 to 10 µM | 0.1 to 0.5 µM | 5 to 10 µM | – | Cc1cc(C)n2nc(N)c(C(=O)N[C@@H](C)c3cc4cccc(C#Cc5cnn(C)c5)c4c(=O)n3-c3ccccc3)c2n1
5 to 10 µM | 1 to 5 µM | 5 to 10 µM | – | C[C@H](NC(=O)c1c(N)nn2cccnc12)c1cc2cccc(C#Cc3cnn(C)c3)c2c(=O)n1C1CCCCC1
5 to 10 µM | 1 to 5 µM | 5 to 10 µM | – | Cn1cc(C#Cc2cccc3cc(CNC(=O)c4c(N)nn5cccnc45)n(-c4ccccc4)c(=O)c23)cn1
1 to 5 µM | 0.001 to 0.1 µM | 5 to 10 µM | – | CNS(=O)(=O)CCn1c([C@H](C)NC(=O)c2c(N)nn3cccnc23)cc2cccc(C#Cc3cnn(C)c3)c2c1=O
5 to 10 µM | 0.5 to 1 µM | 5 to 10 µM | – | C[C@H](NC(=O)c1c(N)nn2cccnc12)c1cc2cccc(C#CC3CCN(C)CC3)c2c(=O)n1-c1ccccc1
0.5 to 1 µM | 0.1 to 0.5 µM | 5 to 10 µM | – | C[C@H](NC(=O)c1c(N)nn2cccnc12)c1cc2cccc(C#Cc3cnn(C)c3)c2c(=O)n1C
0.001 to 0.5 µM | 0.001 to 0.1 µM | 0.001 to 0.5 µM | – | C#Cc1cccc2nc([C@H](C)NC(=O)c3nccnc3N)n(-c3ccccc3)c(=O)c12
5 to 10 µM | 0.001 to 0.1 µM | 5 to 10 µM | – | CC[C@H](NC(=O)c1c(N)nn2cccnc12)c1cc2cccc(C#Cc3cnn(C)c3)c2c(=O)n1-c1ccccc1
1 to 5 µM | 0.001 to 0.1 µM | 5 to 10 µM | – | C[C@H](NC(=O)c1c(N)nn2cccnc12)c1cc2cccc(C#Cc3cnn(C)c3)c2c(=O)n1CCS(=O)(=O)N(C)C
5 to 10 µM | 0.1 to 0.5 µM | 5 to 10 µM | – | Cc1ccc(-n2c([C@H](C)NC(=O)c3c(N)nn4cccnc34)cc3cccc(C#Cc4cnn(C)c4)c3c2=O)cc1
5 to 10 µM | 0.001 to 0.1 µM | 5 to 10 µM | – | C[C@H](NC(=O)c1c(N)nn2cccnc12)c1cc2cccc(C#Cc3cnn(C)c3)c2c(=O)n1-c1cccc(F)c1
1 to 5 µM | – | 5 to 10 µM | 0.1 to 0.5 µM | C[C@H](NC(=O)c1c(N)nn2cccnc12)c1cc2cccc(C#Cc3cnn(C)c3)c2c(=O)n1C1CC1
5 to 10 µM | 0.001 to 0.1 µM | 5 to 10 µM | – | C[C@H](NC(=O)c1c(N)nn2cccnc12)c1cc2cccc(C#Cc3cnn(C)c3)c2c(=O)n1-c1ccc(F)cc1
1 to 5 µM | 0.001 to 0.1 µM | 1 to 5 µM | – | C[C@H](NC(=O)c1c(N)nn2cccnc12)c1cc2cccc(N)c2c(=O)n1-c1ccccc1
